In ChEMBL document CHEMBL1137564, “Substituted 2-pyrrolinone inhibitors of HIV-1 integrase” (Bioorg Med Chem Lett, 2007):

Experiments:
[1] = target: T1, Human immunodeficiency virus type 1 integrase (Human immunodeficiency virus 1, UniProt Q7ZJM1); test: Inhibition of HIV1 integrase strand transfer activity
[2] = target: T1, Human immunodeficiency virus type 1 integrase; test: Inhibition of HIV1 integrase 3'-end processing activity
[3] = target: T1, Human immunodeficiency virus type 1 integrase; test: Inhibition of HIV1 integrase 3'-end processing activity in presence of Mg2+
[4] = target: Human immunodeficiency virus type 1 integrase (Human immunodeficiency virus 1) (UniProt Q7ZJM1); test: Selectivity for HIV1 integrase strand transfer activity over 3'-end processing activity in presence of Mg2+
Human immunodeficiency virus type 1 integrase (Human immunodeficiency virus 1), sequence (Q7ZJM1 as listed by the source): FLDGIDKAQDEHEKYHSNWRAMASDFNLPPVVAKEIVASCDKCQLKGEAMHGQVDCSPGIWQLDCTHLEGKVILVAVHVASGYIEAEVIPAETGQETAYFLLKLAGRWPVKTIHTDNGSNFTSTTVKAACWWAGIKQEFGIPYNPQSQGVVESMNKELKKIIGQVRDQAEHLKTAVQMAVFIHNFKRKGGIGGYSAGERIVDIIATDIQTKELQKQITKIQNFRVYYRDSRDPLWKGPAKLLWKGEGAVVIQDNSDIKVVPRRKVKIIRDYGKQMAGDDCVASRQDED

[5] = target: T1, Human immunodeficiency virus type 1 integrase; test: Inhibition of HIV1 integrase strand transfer activity in presence of Mg2+

T1 sequence (Q7ZJM1 whole entry): as the sequence (Q7ZJM1 as listed by the source) above

Row | Ratio IC50 [4] | SMILES | IC50 [1] [µM] | IC50 [2] [µM] | IC50 [3] [µM] | IC50 [5] [µM]
1 |  | Cc1ccc(C(=O)C2=C(O)C(=O)N(c3nccs3)C2c2ccc(Cl)cc2)cc1 (stereo unspecified) | 39 | 56 |  | 
2 |  | O=C(C1=C(O)C(=O)N(c2nc3ccccc3s2)C1c1ccc2c(c1)OCO2)c1ccccc1 (stereo unspecified) | 21 | 57 |  | 
3 |  | O=C(C1=C(O)C(=O)N(c2nc3ccccc3s2)C1c1cccnc1)c1ccc(Cl)cc1 (stereo unspecified) | 90 | > 100 |  | 
4 |  | COc1ccc(C(=O)C2=C(O)C(=O)N(CCc3ccccc3)C2c2ccc(Br)cc2)cc1OC (stereo unspecified) | 42 | 60 |  | 
5 | > 10 | COc1ccc(OC)c(C(=O)C2=C(O)C(=O)N(CCCCCC(=O)O)C2c2ccc(Cl)cc2)c1 (stereo unspecified) | 40 | 88 | > 100 | 10
6 |  | COc1ccc(C2C(C(=O)c3ccc(Br)cc3)=C(O)C(=O)N2c2cc(C(C)(C)C)on2)cc1OC (stereo unspecified) | 43 | 45 |  | 
7 |  | CCOc1ccc(C(=O)C2=C(O)C(=O)N(c3nccs3)C2c2ccc(OC)cc2)cc1 (stereo unspecified) | 90 | > 100 |  | 
8 |  | O=C(C1=C(O)C(=O)N(c2nc3ccccc3s2)C1c1ccccn1)c1ccc(Cl)cc1 (stereo unspecified) | 83 | > 100 |  | 
9 |  | CCOc1ccc(C(=O)C2=C(O)C(=O)N(c3nccs3)C2c2ccc(O)c(OC)c2)cc1 (stereo unspecified) | 30 | 57 |  | 
10 |  | Cc1ccc(C(=O)C2=C(O)C(=O)N(c3nccs3)C2c2ccc(F)cc2)cc1 (stereo unspecified) | 78 | > 100 |  | 
11 |  | COc1ccc(C2C(C(=O)c3ccc(Br)cc3)=C(O)C(=O)N2c2cccc(C(F)(F)F)c2)cc1OC (stereo unspecified) | 26 | 47 |  | 
12 |  | Cc1ccc(C2C(C(=O)c3ccc(Cl)cc3)=C(O)C(=O)N2CC(=O)O)cc1 (stereo unspecified) | 69 | 84 |  | 
13 |  | Cc1ccc(C(=O)C2=C(O)C(=O)N(c3ncc(S(=O)(=O)c4ccc([N+](=O)[O-])cc4)s3)C2c2cccc(Cl)c2)cc1 (stereo unspecified) | 8 | 27 | > 100 | 6.1
14 |  | CCOc1ccc(C(=O)C2=C(O)C(=O)N(c3nnc(C)s3)C2c2ccc(F)cc2)cc1 (stereo unspecified) | > 100 | > 100 |  | 
15 |  | CCOC(=O)c1sc(N2C(=O)C(O)=C(C(=O)c3ccccc3)C2c2ccc(F)cc2)nc1C (stereo unspecified) | 21 | 44 |  | 
16 |  | CC(C)(C)c1ccc(C2C(C(=O)c3ccc(F)cc3)=C(O)C(=O)N2c2nncs2)cc1 (stereo unspecified) | 43 | 64 |  | 
17 |  | CCOC(=O)c1sc(N2C(=O)C(O)=C(C(=O)c3ccc(C)cc3)C2c2ccc(F)cc2)nc1C (stereo unspecified) | 33 | > 100 |  | 
18 |  | Cc1ccc(C(=O)C2=C(O)C(=O)N(CCCn3ccnc3)C2c2ccc(Cl)cc2)cc1 (stereo unspecified) | 67 | 93 |  | 
